# From publication PMC7664879, “Discovery of 12O—A Novel Oral Multi-Kinase Inhibitor for the Treatment of Solid Tumor” (Molecules, 2020)
# Legend:
# SKOV3 = assay: CCK-8 cell growth inhibition, SKOV3; format: cell-based, human; settings: CCK-8 assay, 72-h incubation; read-out: Cell Lines IC50 SKOV3
# Procedure: (§1) In vitro anticancer screening of all newly synthesized compounds towards human solid tumor cells, cervical (SiHa) and ovarian (SKOV3) cancer cell lines, was carried out by standard CCK-8 assay with cisplatin as the positive control, as cisplatin is one of the most used chemotherapy drugs. […] The compound was further evaluated in a dose response study against a panel of solid tumor cells, including cervical cancer cell lines (SiHa and HeLa), ovarian cancer cell lines (SKOV3 and OVCAR-5), breast cancer cell lines (4T1 and MCF-7), lung cancer cell lines (A549 and H460) to test cytotoxic activity. The IC50 values were summarized in Table 2, including the cytotoxic activity of the cisplatin used as reference compound.
# (§2) The viability of cells as determined using the CCK8 assay method. Cells were seeded (2000–3000 cells per well) in 96-well plates. After incubation for 24 h in serum-containing media, the cells were treated with drugs at different concentrations diluted with culture medium for 72 h at 37 °C with a 5% CO2 atmosphere. Then, 10 μL CCK8 regent (Promega, WI) was added to each well, and the plates were incubated for 1–4 h at 37 °C. Finally, absorbance values of test wells (AS), control wells (AC) and blank wells (Ab) at 450 nm were read using the Microplate Reader (Promega, WI). Inhibition ratios were calculated as follows: [(AC − AS)/ (AC−Ab)] × 100%. IC50 values were calculated using GraphPad software.
# SiHa = assay: CCK-8 cell growth inhibition, SiHa; format: cell-based, human; settings: CCK-8 assay, 72-h incubation; read-out: Cell Lines IC50 SiHa
# Procedure: as §1, §2
# HeLa = assay: CCK-8 cell growth inhibition, HeLa; format: cell-based, human; settings: cervical cancer; CCK-8 assay, 72-h incubation
# Procedure: as §1
# as §2, with “Then, 10 μL CCK8 regent (Promega, WI) was added to each well, and the plates were incubated for 1–4 h at 37 °C.” left out
# MCF-7 = assay: CCK-8 cell growth inhibition, MCF-7; format: cell-based, human; settings: breast cancer; CCK-8 assay, 72-h incubation
# Procedure: as §1
# as §2, with “Then, 10 μL CCK8 regent (Promega, WI) was added to each well, and the plates were incubated for 1–4 h at 37 °C.” left out
# 4T1 = assay: CCK-8 cell growth inhibition, 4T1; format: cell-based; settings: breast cancer; CCK-8 assay, 72-h incubation
# Procedure: as §1
# as §2, with “Then, 10 μL CCK8 regent (Promega, WI) was added to each well, and the plates were incubated for 1–4 h at 37 °C.” left out
# OVCAR-5 = assay: CCK-8 cell growth inhibition, OVCAR-5; format: cell-based, human; settings: ovarian cancer; CCK-8 assay, 72-h incubation
# Procedure: as §1
# as §2, with “Then, 10 μL CCK8 regent (Promega, WI) was added to each well, and the plates were incubated for 1–4 h at 37 °C.” left out
# A549 = assay: CCK-8 cell growth inhibition, A549; format: cell-based, human; settings: lung cancer; CCK-8 assay, 72-h incubation
# Procedure: as §1
# as §2, with “Then, 10 μL CCK8 regent (Promega, WI) was added to each well, and the plates were incubated for 1–4 h at 37 °C.” left out
# H460 = assay: CCK-8 cell growth inhibition, H460; format: cell-based, human; settings: lung cancer; CCK-8 assay, 72-h incubation
# Procedure: as §1
# as §2, with “Then, 10 μL CCK8 regent (Promega, WI) was added to each well, and the plates were incubated for 1–4 h at 37 °C.” left out
# SiHa xenograft = SiHa xenograft mouse model, oral dosing; format: in vivo; settings: SiHa xenograft mice, 20 mg/kg oral, every day
# Procedure: Based on a desirable set of in vitro properties, 12O was finally selected for further in vivo evaluation. We proceeded to test the antitumor efficacy of 12O in SiHa xenograft mice. Animals were orally given three doses (5, 10, and 20 mg Kg^−1) of 12O, one dose (20 mg Kg^−1) of cisplatin (positive control), or vehicle (control) every day. […] Of note, In Figure 5c, an obvious decrease in tumor size was also observed at the end of observation. The average tumor weight (Figure 5d) of the 12O-treated group was less than that of cisplatin. HE staining was further performed to identify the efficacy of 12O (Figure 5e). […] Additional kinase activities of 12O intimately associated with the growth, survival, and metastasis in tumor cells, may contribute to the antitumor activity, but may also cause side effects. Multi-target kinase inhibitor extensively used in clinic cancer therapy, while hampered by associated adverse reactions and side-effect. Thus, further evidence is needed. An in-depth study of compound 12O is ongoing in our laboratory and will be reported in due course.
# All animal studies were conducted under the approval of the Experimental Animal Management Committee of Nankai University (No. NKUEC20190228). Six- to eight-week-old female BALB/c nude mice were purchased from Beijing HFK Bioscience Company. Mice were fed in an SPF-level laboratory animal room. The mice were kept in independent ventilation cages with autoclaved corncobs at the bottom of the cage as bedding. The dimensions of the cages were 390 × 180 × 180 mm. Environmental factors: Average air temperature ranged from 20 to 26 °C with average relative air humidity ranging from 40 to 70%. Noise was below 60 decibels. Ventilation times were more than 15 times/hour. Air velocity was 0.1~0.2m/s. The ammonia concentration was below 14/(mg/m³). Working illumination was 150~300LX and animal illumination was 15~20LX. The nutritional components of mouse food include: water content: ≤10%, crude protein: ≥18%, crude fat: ≥4%, crude fiber: ≥5%, minerals: ≥4%, calcium: 1.0–1.8%, Phosphorus: 0.6-1.2%. The water that mice drink is sterilized by the animal drinking system.
# Cells SiHa were harvested during the exponential-growth phase, washed 3 times with serum-free medium, followed by resuspension at a concentration of 2 × 10^6 per mL. A total of 100 μL of cell suspension was injected into SCID mice subcutaneously. After the tumors had grown to 100−150 mm^3, all the mice were randomized into 5 groups (5 mice for each group, 25 mice total). The mice were treated daily via oral gavage administration with 12O (5, 10, or 20 mg kg^−1 d^−1), cisplatin (20 mg kg^−1 d^−1), or vehicle. […] Mice were monitored for side effects every day. Body weights and tumor sizes were determined every other day and volume was also observed. At the end-point of the study, all mice had survived. Mice were euthanized and the subcutaneous tumor tissues were stripped and collected. Tumor measurements were calculated using a digital vernier caliper, and the volumes were determined using the following calculation: (short^2) × long × 0.5. Inhibition rate of tumor growth was calculated using the following formula: 100 × {1 − [(tumor volume final-tumor volume initial) for 12O-treated group]/ [(tumor volume final-tumor volume initial) for the vehicle-treated group]} [23].
Compound,IC50 (SKOV3),IC50 (SiHa),other results
"N.N.[Cl][Pt][Cl] [Cisplatin, cisplatin, reference compound]",5360 nM,4910 nM,IC50 (HeLa): 5.81 µM; IC50 (MCF-7): 7.16 µM; IC50 (4T1): 4.26 µM; IC50 (OVCAR-5): 1240 nM; IC50 (A549): 8.28 µM; IC50 (H460): > 10 µM; Tumor growth inhibition (TGI) (SiHa xenograft): 31.14%
"N-(3-bromophenyl)-N-(4-((5-fluoro-4-(1-isopropyl-1H-benzo[d](1,2,3)triazol-6-yl)pyrimidin-2-yl)amino)benzyl)cyclopropane-1,1-dicarboxamide [12E]",778 nM,66 nM,–
"N-(3-chlorophenyl)-N-(4-((5-fluoro-4-(1-isopropyl-1H-benzo[d](1,2,3)triazol-6-yl)pyrimidin-2-yl)amino)benzyl)cyclopropane-1,1-dicarboxamide [12C]",459 nM,68 nM,–
"N-(3-cyanophenyl)-N-(4-((5-fluoro-4-(1-isopropyl-1H-benzo[d](1,2,3)triazol-6-yl)pyrimidin-2-yl)amino)benzyl)cyclopropane-1,1-dicarboxamide [12K]",108 nM,83 nM,–
"N-(4-((5-fluoro-4-(1-isopropyl-1H-benzo[d](1,2,3)triazol-6-yl)pyrimidin-2-yl)amino)benzyl)-N-(3-(trifluoromethyl)phenyl)cyclopropane-1,1-dicarboxamide [12M]",498 nM,177 nM,–
"N-(4-((5-fluoro-4-(1-isopropyl-1H-benzo[d](1,2,3)triazol-6-yl)pyrimidin-2-yl)amino)benzyl)-N-(3-fluorophenyl)cyclopropane-1,1-dicarboxamide [12A]",531 nM,35 nM,–
"N-(4-((5-fluoro-4-(1-isopropyl-1H-benzo[d](1,2,3)triazol-6-yl)pyrimidin-2-yl)amino)benzyl)-N-(3-methoxyphenyl)cyclopropane-1,1-dicarboxamide [12G]",325 nM,73 nM,–
"N-(4-((5-fluoro-4-(1-isopropyl-1H-benzo[d](1,2,3)triazol-6-yl)pyrimidin-2-yl)amino)benzyl)-N-(4-(trifluoromethyl)phenyl)cyclopropane-1,1-dicarboxamide [12N]",427 nM,160 nM,–
"N-(4-((5-fluoro-4-(1-isopropyl-1H-benzo[d](1,2,3)triazol-6-yl)pyrimidin-2-yl)amino)benzyl)-N-(4-fluorophenyl)cyclopropane-1,1-dicarboxamide [12B]",199 nM,28 nM,–
"N-(4-((5-fluoro-4-(1-isopropyl-1H-benzo[d](1,2,3)triazol-6-yl)pyrimidin-2-yl)amino)benzyl)-N-(4-methoxyphenyl)cyclopropane-1,1-dicarboxamide [12H]",312 nM,80 nM,–
"N-(4-((5-fluoro-4-(1-isopropyl-1H-benzo[d](1,2,3)triazol-6-yl)pyrimidin-2-yl)amino)benzyl)-N-(m-tolyl)cyclopropane-1,1-dicarboxamide [12I]",165 nM,42 nM,–
"N-(4-((5-fluoro-4-(1-isopropyl-1H-benzo[d](1,2,3)triazol-6-yl)pyrimidin-2-yl)amino)benzyl)-N-(p-tolyl)cyclopropane-1,1-dicarboxamide [12J]",137 nM,74 nM,–
"N-(4-bromophenyl)-N-(4-((5-fluoro-4-(1-isopropyl-1H-benzo[d](1,2,3)triazol-6-yl)pyrimidin-2-yl)amino)benzyl)cyclopropane-1,1-dicarboxamide [12F]",706 nM,128 nM,–
"N-(4-chloro-3-(trifluoromethyl)phenyl)-N-(4-((5-fluoro-4-(1-isopropyl-1H-benzo[d](1,2,3)triazol-6-yl)pyrimidin-2-yl)amino)benzyl)cyclopropane-1,1-dicarboxamide [12P]",915 nM,231 nM,–
"N-(4-chlorophenyl)-N-(4-((5-fluoro-4-(1-isopropyl-1H-benzo[d](1,2,3)triazol-6-yl)pyrimidin-2-yl)amino)benzyl)cyclopropane-1,1-dicarboxamide [12D]",793 nM,63 nM,–
"N-(4-cyanophenyl)-N-(4-((5-fluoro-4-(1-isopropyl-1H-benzo[d](1,2,3)triazol-6-yl)pyrimidin-2-yl)amino)benzyl)cyclopropane-1,1-dicarboxamide [12L]",101 nM,63 nM,–
